# Source: the supplement of paper PMC10307832
# Compound: COC1=CC=C(C=C1)COC2=C(C=C(C=C2)CC3=CN=C(N=C3N)N)OC [GW-2580] + CS(=O)(=O)N1CCN(Cc2cc3nc(-c4cccc5[nH]ncc45)nc(N4CCOCC4)c3s2)CC1 [Pictilisib] (partner 1 µM)
# Experiment: relative viability (nuclei count vs DMSO), 5 days (fraction); higher = more cells survive
# Conditions: first compound 0.08 µM
# Procedure, shortened: (§1)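 Relative viability divides the nuclei count in treated wells by that in vehicle wells. Lung cancer cell lines were seeded in 1536-well plates, dosed by pin tool the next day, and fixed and stained after 5 days in one step with final 0.05% Triton X-100, 1% formaldehyde and 1 ug/ml Hoechst. Dosing was a single drug or a fixed anchor-drug dose plus five library-drug doses (not always all listed) in √10 steps, and values are medians of duplicate plates imaged at 4×.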
row,Cell Line,relative viability
1,NCI-H727,0.355
2,NCI-H1650,0.644
3,EBC-1,0.309
4,NCI-H1703,0.218
5,LCLC-103H,0.648
6,Calu-6,0.99
7,IA-LM,0.315
8,ChaGo-K-1,0.735
9,NCI-H2170,0.316
10,A549,0.575
11,NCI-H441,0.505
12,NCI-H1299,0.776
13,NCI-H1563,0.686
14,ABC-1,0.761

# Same assay, conditions: first compound 0.8 µM
row,Cell Line,relative viability
1,NCI-H727,0.622
2,NCI-H1650,0.564
3,EBC-1,0.374
4,NCI-H1703,0.295
5,LCLC-103H,0.638
6,Calu-6,1.08
7,IA-LM,0.324
8,ChaGo-K-1,1.15
9,NCI-H2170,0.353
10,A549,0.491
11,NCI-H441,0.587
12,NCI-H1299,0.736
13,NCI-H1563,0.661
14,ABC-1,0.564

# Same assay, conditions: first compound 2.53 µM
row,Cell Line,relative viability
1,NCI-H727,0.349
2,NCI-H1650,0.454
3,EBC-1,0.323
4,NCI-H1703,0.267
5,LCLC-103H,0.649
6,Calu-6,0.908
7,IA-LM,0.398
8,ChaGo-K-1,0.526
9,NCI-H2170,0.304
10,A549,0.486
11,NCI-H441,0.379
12,NCI-H1299,0.773
13,NCI-H1563,0.655
14,ABC-1,0.571

# Same assay, conditions: first compound 8 µM
row,Cell Line,relative viability
1,NCI-H727,0.372
2,NCI-H1650,0.601
3,EBC-1,0.296
4,NCI-H1703,0.234
5,LCLC-103H,0.599
6,Calu-6,1.05
7,IA-LM,0.405
8,ChaGo-K-1,0.655
9,NCI-H2170,0.287
10,A549,0.303
11,NCI-H441,0.436
12,NCI-H1299,0.748
13,NCI-H1563,0.642
14,ABC-1,0.679

# Compound: Cc1cnc(Nc2ccc(OCCN3CCCC3)cc2)nc1Nc1cccc(S(=O)(=O)NC(C)(C)C)c1 [Fedratinib] + C[C@]1(O)C[C@@H](c2nc(-c3ccc4ccc(-c5ccccc5)nc4c3)c3c(N)nccn32)C1 [Linsitinib] (partner 1 µM)
# Experiment: as above
# Conditions: first compound 0.1 µM
# Procedure, shortened: as §1
row,Cell Line,relative viability
1,NCI-H727,0.2
2,EBC-1,0.764
3,LCLC-103H,1.19
4,Calu-6,1.02
5,IA-LM,0.547
6,A549,0.56
7,NCI-H441,0.518
8,NCI-H1299,0.946
9,NCI-H1563,1.16
10,ABC-1,0.625

# Same assay, conditions: first compound 0.3162 µM
row,Cell Line,relative viability
1,NCI-H727,0.213
2,EBC-1,0.937
3,NCI-H1703,0.98
4,LCLC-103H,1.1
5,Calu-6,0.953
6,IA-LM,0.546
7,A549,0.539
8,NCI-H441,0.442
9,NCI-H1299,0.96
10,NCI-H1563,1.18
11,ABC-1,0.859

# Same assay, conditions: first compound 1 µM
row,Cell Line,relative viability
1,NCI-H727,0.335
2,EBC-1,0.814
3,NCI-H1703,0.615
4,LCLC-103H,0.966
5,Calu-6,0.917
6,IA-LM,0.786
7,A549,0.601
8,NCI-H441,0.343
9,NCI-H1299,0.994
10,NCI-H1563,1.16
11,ABC-1,0.713

# Compound: Cc1cnc(Nc2ccc(OCCN3CCCC3)cc2)nc1Nc1cccc(S(=O)(=O)NC(C)(C)C)c1 [Fedratinib] + CS(=O)(=O)CCNCc1ccc(-c2ccc3ncnc(Nc4ccc(OCc5cccc(F)c5)c(Cl)c4)c3c2)o1 [Lapatinib] (partner 2 µM)
# Experiment: as above
# Conditions: first compound 0.1 µM
# Procedure, shortened: as §1
row,Cell Line,relative viability
1,NCI-H727,0.783
2,NCI-H1650,0.548
3,EBC-1,0.175
4,NCI-H1703,0.675
5,Calu-6,1.29
6,IA-LM,0.873
7,NCI-H2170,0.255
8,A549,1.16
9,NCI-H1299,0.963
10,NCI-H1563,0.915
11,ABC-1,1.28

# Same assay, conditions: first compound 0.3162 µM
row,Cell Line,relative viability
1,NCI-H727,0.846
2,NCI-H1650,0.925
3,EBC-1,0.193
4,NCI-H1703,0.834
5,Calu-6,1
6,IA-LM,0.632
7,NCI-H2170,0.262
8,A549,0.907
9,NCI-H1299,0.96
10,NCI-H1563,1.07
11,ABC-1,1.16

# Same assay, conditions: first compound 1 µM
row,Cell Line,relative viability
1,NCI-H727,0.211
2,NCI-H1650,0.183
3,EBC-1,0.177
4,NCI-H1703,0.667
5,Calu-6,0.945
6,IA-LM,0.46
7,NCI-H2170,0.258
8,A549,0.875
9,NCI-H1299,0.983
10,NCI-H1563,0.65
11,ABC-1,1.46

# Compound: Cc1cnc(Nc2ccc(OCCN3CCCC3)cc2)nc1Nc1cccc(S(=O)(=O)NC(C)(C)C)c1 [Fedratinib] + CC(=O)Nc1cccc(-n2c(=O)n(C3CC3)c(=O)c3c(Nc4ccc(I)cc4F)n(C)c(=O)c(C)c32)c1 [Trametinib] (partner 0.02 µM)
# Experiment: as above
# Conditions: first compound 0.1 µM
# Procedure, shortened: as §1
row,Cell Line,relative viability
1,NCI-H2342,0.858
2,NCI-H727,0.38
3,NCI-H1650,0.534
4,LCLC-103H,0.699
5,NCI-H1648,0.383
6,ChaGo-K-1,0.765
7,NCI-H2170,0.931
8,NCI-H522,0.675
9,SW 900,0.748
10,NCI-H441,0.348

# Same assay, conditions: first compound 0.3162 µM
row,Cell Line,relative viability
1,NCI-H2342,1.1
2,NCI-H727,0.426
3,NCI-H1650,0.545
4,LCLC-103H,0.683
5,NCI-H1648,0.441
6,ChaGo-K-1,0.841
7,NCI-H2170,0.887
8,NCI-H522,0.62
9,SW 900,0.802
10,NCI-H441,0.345

# Same assay, conditions: first compound 1 µM
row,Cell Line,relative viability
1,NCI-H2342,1.01
2,NCI-H727,0.392
3,NCI-H1650,0.642
4,LCLC-103H,0.659
5,NCI-H1648,0.43
6,ChaGo-K-1,0.873
7,NCI-H2170,0.847
8,NCI-H522,0.681
9,SW 900,0.798
10,NCI-H441,0.301

# Compound: COC1=CC=C(C=C1)COC2=C(C=C(C=C2)CC3=CN=C(N=C3N)N)OC [GW-2580]
# Experiment: relative viability (nuclei count vs DMSO), 5 days (fraction); higher = more cells survive
# Conditions: 0.08 µM
# Procedure, shortened: (§2)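 Lung cancer cell lines in 1536-well plates were exposed by pinning to five library-drug doses (not always all listed) √10 apart, following an overnight hold at 37 °C. MetaXpress counted Hoechst-stained nuclei from 4× images taken after 5 days without medium change. Viability is the median ratio of treated-well to vehicle-well nuclei across plates. Plates required control CV below 25% and at least one doubling.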
row,Cell Line,relative viability
1,NCI-H2342,0.921
2,NCI-H1623,0.947
3,NCI-H727,1.14
4,NCI-H1650,1.08
5,EBC-1,1.07
6,NCI-H1703,0.855
7,LCLC-103H,0.999
8,Calu-6,1.12
9,NCI-H1648,0.82
10,IA-LM,0.849
11,ChaGo-K-1,0.938
12,NCI-H2170,1.02
13,A549,1.01
14,NCI-H522,0.969
15,SW 900,0.767
16,NCI-H441,1.07
17,NCI-H1299,1.08
18,NCI-H1563,0.982
19,ABC-1,0.956

# Same assay, conditions: 0.8 µM
row,Cell Line,relative viability
1,NCI-H2342,1.05
2,NCI-H1623,0.998
3,NCI-H727,1.03
4,NCI-H1650,1.11
5,EBC-1,1.17
6,NCI-H1703,0.991
7,LCLC-103H,0.909
8,Calu-6,1.1
9,IA-LM,1.1
10,ChaGo-K-1,0.985
11,NCI-H2170,1.02
12,A549,1.12
13,NCI-H522,0.9
14,SW 900,0.876
15,NCI-H441,0.924
16,NCI-H1299,1.03
17,NCI-H1563,0.966
18,ABC-1,1.14

# Same assay, conditions: 2.53 µM
row,Cell Line,relative viability
1,NCI-H2342,0.775
2,NCI-H1623,0.828
3,NCI-H727,0.971
4,NCI-H1650,0.83
5,EBC-1,0.889
6,NCI-H1703,1.02
7,LCLC-103H,0.977
8,Calu-6,0.96
9,NCI-H1648,0.929
10,IA-LM,0.913
11,ChaGo-K-1,1.01
12,NCI-H2170,0.948
13,A549,0.944
14,NCI-H522,0.957
15,SW 900,0.833
16,NCI-H441,1.01
17,NCI-H1299,1
18,NCI-H1563,0.876
19,ABC-1,0.869

# Same assay, conditions: 8 µM
row,Cell Line,relative viability
1,NCI-H2342,0.97
2,NCI-H1623,0.96
3,NCI-H727,0.823
4,NCI-H1650,1.05
5,EBC-1,0.949
6,NCI-H1703,0.919
7,LCLC-103H,0.927
8,Calu-6,1.04
9,NCI-H1648,0.888
10,IA-LM,0.936
11,ChaGo-K-1,0.999
12,NCI-H2170,0.972
13,A549,0.932
14,NCI-H522,0.996
15,SW 900,0.771
16,NCI-H441,1.14
17,NCI-H1299,0.937
18,NCI-H1563,0.912
19,ABC-1,0.883

# Compound: Cc1cnc(Nc2ccc(OCCN3CCCC3)cc2)nc1Nc1cccc(S(=O)(=O)NC(C)(C)C)c1 [Fedratinib]
# Experiment: as above
# Conditions: 0.1 µM
# Procedure, shortened: as §2
row,Cell Line,relative viability
1,NCI-H2342,1.08
2,NCI-H1623,1.04
3,NCI-H727,1.03
4,NCI-H1650,0.715
5,EBC-1,0.893
6,NCI-H1703,0.518
7,LCLC-103H,0.952
8,Calu-6,1.03
9,NCI-H1648,0.889
10,IA-LM,1.01
11,ChaGo-K-1,0.953
12,NCI-H2170,1.05
13,A549,0.998
14,NCI-H522,0.971
15,SW 900,0.78
16,NCI-H441,1.03
17,NCI-H1299,1.01
18,NCI-H1563,0.949
19,ABC-1,0.827

# Same assay, conditions: 0.3162 µM
row,Cell Line,relative viability
1,NCI-H2342,1.06
2,NCI-H1623,0.987
3,NCI-H727,0.928
4,NCI-H1650,1.01
5,EBC-1,0.988
6,NCI-H1703,0.794
7,LCLC-103H,1
8,Calu-6,1.04
9,NCI-H1648,0.901
10,IA-LM,0.87
11,ChaGo-K-1,0.948
12,NCI-H2170,1.01
13,A549,0.937
14,NCI-H522,1.16
15,SW 900,0.847
16,NCI-H441,1.04
17,NCI-H1299,1.03
18,NCI-H1563,1.04
19,ABC-1,0.954

# Same assay, conditions: 1 µM
row,Cell Line,relative viability
1,NCI-H2342,0.994
2,NCI-H1623,0.935
3,NCI-H727,0.813
4,NCI-H1650,0.748
5,EBC-1,0.878
6,NCI-H1703,0.686
7,LCLC-103H,0.932
8,Calu-6,0.971
9,NCI-H1648,0.694
10,IA-LM,0.931
11,ChaGo-K-1,0.958
12,NCI-H2170,0.9
13,A549,0.958
14,NCI-H522,0.758
15,SW 900,0.768
16,NCI-H441,0.734
17,NCI-H1299,1
18,NCI-H1563,0.933
19,ABC-1,0.816
